In US8354436B2 (4SC Discovery GmbH, priority 2011, dated 2013) one finds IC50 data, which are given here for 22 compounds.

Read-outs that look alike come from different tables or passages of the source.

Common to all, as to assay type: cell-based
The test system of one assay is IFN-γ. Briefly: IFN-γ production by PHA-stimulated human PBMC (OptEIA human IFN-g ELISA). The conditions noted are these: 48 hours. On the procedure:
(§1) Analysis of Proliferation of and Cytokine Production by Human PBMC Stimulated with PHA
(§2) Peripheral blood mononuclear cells (PBMC) from healthy human donors were purified using Accuspin™ System-Histopaque-1077 (Sigma) according to the protocol recommended by the manufacturer. Purified PBMC were then washed twice with phosphate-buffered saline (PBS) and resuspended in RPMI1640 culture medium supplemented with 10% dialyzed heat inactivated fetal calf serum, 1.5 mM L-glutamine, 100 U penicillin/ml, and […] (all from PAN Biotech, Aidenbach, Germany). For stimulation, PBMC were seeded at 1×10^5 cells/well, activated with 2 μg/ml phytohaemagglutinin (PHA, Sigma) and incubated with the test compounds for 48 hours. IL-17A, IL-17F and INF-γ were then determined in the culture supernatant using a Luminex BioPlex system, following the manufacturer's instructions (BioRad, Munich, Germany). For screening, compounds were used at 10, 1, 0.1 and 0.01 μM. To determine the IC50, compounds were titrated semilogarithmically.
(§3) Cytokines were determined in the aforementioned culture supernatant using the following methods: IL-17AA/AF was measured using the Luminex BioPlex system (BioRad, Munich, Germany); IL-17AA using the human homodimer IL-17A ELISA Ready Set Go Kit from eBioscience (Frankfurt, Germany); IL-17FF using the human IL-17F ELI-Pair from Hölzel DiagnosticaGmBH (Köln, Germany); and IFN-γ using the OptEIA human IFN-g ELISA from BD Bioscience (Heidelberg, Germany), all following the manufacturer's instructions.
Background: In an ELISA, binding on a coated surface is turned into a signal by an enzyme label.

For the next assay, the system named is IL-17FF. Briefly: IL-17FF production by PHA-stimulated human PBMC (human IL-17F ELI-Pair). The settings on record: 48 hours. On the procedure: as §1, §2, §3
The subject of assay [1] is PBMC from healthy human donors. The assay is described as follows: T cell proliferation assay (PHA-stimulated human PBMC, BrdU ELISA). The conditions noted are these: PHA-stimulated human PBMC, 48 hours, column D, read-out: IC50 (Tcell proliferation). How it is done: Cell proliferation was analysed using the BrdU based cell proliferation ELISA from Roche (Mannheim, Germany) according to the manufacturer's instructions. T Cell Proliferation Assay Peripheral blood mononuclear cells (PBMC) from healthy human donors were isolated by centrifugation over Ficoll-Hypaque (Sigma-Aldrich, Germany) according to manufacturer's instructions. Purified PBMC were washed twice with PBS and resuspended in RPMI1640 culture medium supplemented with 10% dialyzed heat inactivated fetal calf serum, 1.5 mM L-glutamine, 100 U penicillin/ml, and […] (all from PAN Biotech, Aidenbach, Germany). For stimulation, PBMC were seeded at 1×10^5 cells/well, activated with 2 μg/ml phytohaemagglutinin (PHA, Sigma) and incubated with the test compound. After 48 hours proliferation was measured using the BrdU based cell proliferation ELISA from Roche (Mannheim, Germany) according to the manual.
(In general: Uptake of a labelled nucleoside into DNA is a usual measure of proliferation.)

Setting [2] is: human PBMC, 2 μg/ml PHA, read-out: C: IC50 (IFNγ).
[3] abbreviates: human PBMC, 2 μg/ml PHA, read-out: B: IC50 (IL-17FF).
[4] abbreviates: PHA-stimulated human PBMC, column C, read-out: IC50 (IFNγ).
[5] abbreviates: PHA-stimulated human PBMC, column B, read-out: IC50 (IL-17FF).

Turning to `CC(=O)Nc1cccc(-n2ncc(-c3onc(-c4c(F)cccc4Cl)c3-c3nnc(C)o3)c2C(F)(F)F)c1` [Example B-11, N-(3-(4-(3-(2-chloro-6-fluorophenyl)-4-(5-methyl-1,3,4-oxadiazol-2-yl)isoxazol-5-yl)-5-(trifluoromethyl)-1H-pyrazol-1-yl)phenyl)acetamide], the figures for the IC50 with IFN-γ (setting [2]) and with IL-17FF (setting [3]) were 100 to 1000 nM and 1000 to 10000 nM, respectively.

`CC(=O)Nc1cccc(-n2ncc(-c3onc(-c4c(F)cccc4Cl)c3-c3nnco3)c2C(F)(F)F)c1` [Example B-13, N-(3-(4-(3-(2-chloro-6-fluorophenyl)-4-(1,3,4-oxadiazol-2-yl)isoxazol-5-yl)-5-(trifluoromethyl)-1H-pyrazol-1-yl)phenyl)acetamide]: the IC50 with IFN-γ (setting [2]) and in the assay on IL-17FF (setting [3]) was 1000 to 10000 nM throughout.

For the compound `COc1cc(OC)c(CNC(=O)c2c(-c3c(F)cccc3Cl)noc2-c2cnn(-c3ccccc3F)c2C(F)(F)F)c(OC)c1` [Example I-2, 3-(2-chloro-6-fluorophenyl)-5-(1-(2-fluorophenyl)-5-(trifluoromethyl)-1H-pyrazol-4-yl)-N-(2,4,6-trimethoxyben-zyl)isoxazole-4-carboxamide], the IC50 with IFN-γ (setting [4]) and with IL-17FF (setting [5]) was 1000 to 10000 nM throughout.

For `COC(=O)c1sccc1-n1ncc(-c2onc(-c3c(F)cccc3Cl)c2C(=O)OC)c1C(F)(F)F` [Example I-14, methyl 3-(2-chloro-6-fluorophenyl)-5-(1-(2-(methoxycarbonyl)thiophen-3-yl)-5-(trifluoromethyl)-1H-pyrazol-4-yl)isoxazole-4-carboxylate], the IC50 in the assay on IFN-γ (setting [4]) lay in the range of 100 to 1000 nM; in the assay with IL-17FF (setting [5]), 10 to 100 nM.

With `CN(C)C(=O)c1c(-c2c(F)cccc2Cl)noc1-c1cnn(-c2ccccc2F)c1C(F)(F)F` [Example I-20, 3-(2-chloro-6-fluorophenyl)-5-(1-(2-fluorophenyl)-5-(trifluoromethyl)-1H-pyrazol-4-yl)-N,N-dimethylisoxazole-4-carboxamide], the IC50 with IFN-γ (setting [4]) and in the assay with IL-17FF (setting [5]) was 1000 to 10000 nM each time. Turning to `O=C(c1c(-c2c(F)cccc2Cl)noc1-c1cnn(-c2ccccc2F)c1C(F)(F)F)N1CCCC1` [Example I-22, (3-(2-chloro-6-fluorophenyl)-5-(1-(2-fluorophenyl)-5-(trifluoromethyl)-1H-pyrazol-4-yl)isoxazol-4-yl)(pyrrolidin-1-yl)methanone], the IC50 in the assay with IFN-γ (setting [4]) and with IL-17FF (setting [5]) was 100 to 1000 nM in each case.

As to `CNC(=O)c1c(-c2c(F)cccc2Cl)noc1-c1cnn(CC(C)C)c1C(F)(F)F` [Example I-37, 3-(2-chloro-6-fluorophenyl)-5-(1-isobutyl-5-(trifluoromethyl)-1H-pyrazol-4-yl)-N-methylisoxazole-4-carboxamide], the IC50 in the assay with IFN-γ (setting [4]) fell in the range of 1000 to 10000 nM; with IL-17FF (setting [5]) it was 100 to 1000 nM. Regarding `COC(=O)c1c(-c2c(F)cccc2Cl)noc1-c1cnn(-c2ccccc2OC)c1C(F)(F)F` [Example I-52, methyl 3-(2-chloro-6-fluorophenyl)-5-(1-(2-methoxyphenyl)-5-(trifluoromethyl)-1H-pyrazol-4-yl)isoxazole-4-carboxylate], the IC50 in the assay on IFN-γ (setting [4]) and with IL-17FF (setting [5]) was 100 to 1000 nM each time. Consider `CCOC(=O)c1csc(-n2ncc(-c3onc(-c4c(F)cccc4Cl)c3C(=O)OC)c2C(F)(F)F)n1` [Example I-53, methyl 3-(2-chloro-6-fluorophenyl)-5-(1-(4-(ethoxycarbonyl)thiazol-2-yl)-5-(trifluoromethyl)-1H-pyrazol-4-yl)isoxazole-4-carboxylate], for which the IC50 in the assay with IFN-γ (setting [4]) and with IL-17FF (setting [5]) was 1000 to 10000 nM in each case.

As to `CNC(=O)c1c(-c2c(F)cccc2Cl)noc1-c1cnn(-c2ccc(OC(F)(F)F)cc2)c1C(F)(F)F` [Example I-56, 3-(2-chloro-6-fluorophenyl)-N-methyl-5-(1-(4-(trifluoromethoxy)phenyl)-5-(trifluoromethyl)-1H-pyrazol-4-yl)isoxazole-4-carboxamide], the IC50 with IL-17FF (setting [5]) lay in the range of 1000 to 10000 nM.

As to `CNC(=O)c1c(-c2c(F)cccc2Cl)noc1-c1cnn(-c2cc(F)cc(F)c2)c1C(F)(F)F` [Example I-58, 3-(2-chloro-6-fluorophenyl)-5-(1-(3,5-difluorophenyl)-5-(trifluoromethyl)-1H-pyrazol-4-yl)-N-methylisoxazole-4-carboxamide], the IC50 fell in the range of 100 to 1000 nM in the assay with IFN-γ (setting [4]) and 1000 to 10000 nM in the assay with IL-17FF (setting [5]). For `CNC(=O)c1c(-c2c(F)cccc2Cl)noc1-c1cnn(-c2ccccc2OC)c1C(F)(F)F` [Example I-60, 3-(2-chloro-6-fluorophenyl)-5-(1-(2-methoxyphenyl)-5-(trifluoromethyl)-1H-pyrazol-4-yl)-N-methylisoxazole-4-carboxamide], the IC50 in the assay with IFN-γ (setting [4]) and in the assay with IL-17FF (setting [5]) was 1000 to 10000 nM throughout. For `COC(=O)c1c(-c2c(F)cccc2Cl)noc1-c1cnn(-c2ccc([N+](=O)[O-])cc2)c1C(F)(F)F` [Example I-69, methyl 3-(2-chloro-6-fluorophenyl)-5-(1-(4-nitrophenyl)-5-(trifluoromethyl)-1H-pyrazol-4-yl)isoxazole-4-carboxylate], the IC50 in the assay on IFN-γ (setting [4]) and with IL-17FF (setting [5]) was 1000 to 10000 nM throughout. For `CCOC(=O)c1c(-c2ccc(Cl)cc2)noc1-c1cnn(-c2ccc(F)cc2)c1C(F)(F)F` [Example I-78, ethyl 3-(4-chlorophenyl)-5-(1-(4-fluorophenyl)-5-(trifluoromethyl)-1H-pyrazol-4-yl)isoxazole-4-carboxylate], the IC50 in the assay with IL-17FF (setting [5]) was 1000 to 10000 nM. Turning to `COC(=O)c1c(-c2c(F)cccc2Cl)noc1-c1cnn(-c2ccc(S(N)(=O)=O)cc2)c1C(F)(F)F` [Example I-86, methyl 3-(2-chloro-6-fluorophenyl)-5-(1-(4-sulfamoylphenyl)-5-(trifluoromethyl)-1H-pyrazol-4-yl)isoxazole-4-carboxylate], the IC50 in the assay with IFN-γ (setting [4]) and in the assay on IL-17FF (setting [5]) was 1000 to 10000 nM each time. Consider `CNC(=O)c1c(-c2ccccc2F)noc1-c1cnn(-c2cccc(F)c2)c1C(F)(F)F` [Example I-93, 3-(2-fluorophenyl)-5-(1-(3-fluorophenyl)-5-(trifluoromethyl)-1H-pyrazol-4-yl)-N-methylisoxazole-4-carboxamide], for which the IC50 in the assay on IL-17FF (setting [5]) is 1000 to 10000 nM. As for `CNC(=O)c1c(-c2ccc(Cl)c(Cl)c2)noc1-c1cnn(-c2cccc(F)c2)c1C(F)(F)F` [Example I-98, 3-(3,4-dichlorophenyl)-5-(1-(3-fluorophenyl)-5-(trifluoromethyl)-1H-pyrazol-4-yl)-N-methylisoxazole-4-carboxamide], the IC50 with IL-17FF (setting [5]) is 1000 to 10000 nM.

Consider `Fc1cccc(-n2ncc(-c3onc(-c4c(F)cccc4Cl)c3C(=S)N3CCOCC3)c2C(F)(F)F)c1` [Example I-129, (3-(2-chloro-6-fluorophenyl)-5-(1-(3-fluorophenyl)-5-(trifluoromethyl)-1H-pyrazol-4-yl)isoxazol-4-yl)(morpholino)meth-anethione], for which, in the assay with IL-17FF (setting [5]), the IC50 was in the range of 1000 to 10000 nM. For the compound `Fc1cccc(Cl)c1-c1noc(-c2cnn(-c3ccc(OC(F)(F)F)cc3)c2C(F)(F)F)c1Br` [IB-25, 4-bromo-3-(2-chloro-6-fluorophenyl)-5-(1-(4-(trifluoromethoxy)phenyl)-5-(trifluoromethyl)-1H-pyrazol-4-yl)isoxazole], the IC50 with IL-17FF (setting [5]) lay in the range of 1000 to 10000 nM. `CNC(=O)c1c(-c2c(F)cccc2Cl)noc1-c1cnn(-c2ccccc2Cl)c1C(F)(F)F` [IB-50, 3-(2-chloro-6-fluorophenyl)-5-(1-(2-chlorophenyl)-5-(trifluoromethyl)-1H-pyrazol-4-yl)-N-methylisoxazole-4-carboxamide]: in the assay with IL-17FF (setting [5]), the IC50 fell in the range of 1000 to 10000 nM. Turning to `CON(C)C(=O)c1c(-c2c(F)cccc2Cl)noc1-c1cnn(-c2ccccc2Br)c1C(F)(F)F` [IB-74, 5-(1-(-2-bromophenyl)-5-(trifluoromethyl)-1H-pyrazol-4-yl)-3-(2-chloro-6-fluorophenyl)-N-methoxy-N-methylisoxazole-4-carboxamide], the IC50 (in the assay on IFN-γ (setting [4]); in assay [1]) was 1000 to 10000 nM throughout.

As to `CNC(=O)c1c(-c2c(F)cccc2Cl)noc1-c1cnn(-c2cccc(NC(C)=O)c2)c1C(F)(F)F` [IB-91, 5-(1-(3-acetamidophenyl)-5-(trifluoromethyl)-1H-pyrazol-4-yl)-3-(2-chloro-6-fluorophenyl)-N-methylisoxazole-4-carboxamide], the IC50 in the assay on IL-17FF (setting [5]) fell in the range of 1000 to 10000 nM.
